Tests used:
[1] = target: T1, human Cav3.2 T-type calcium channels (Homo sapiens, UniProt O95180); experiment: Whole-cell patch clamp, T channel current in HEK 293 cells forcibly expressing human Cav3.2; type: cell-based; settings: perfusion addition method; from percentage change in T-channel current before and after addition; n=3 to 17
T1 construct: expressed in transfected cells; host or cells: HEK 293 cells
Protocol: The effect of the compound of the present invention on human Cav3.2 T-type calcium channels was evaluated by whole-cell patch clamp method. As a control (vehicle), DMSO solution was used.
Human kidney cell-derived cell line, HEK 293 cells, in which human Cav3.2 T-type calcium channels were forcibly expressed, were seeded into cell culture dishes using DMEM medium containing 10% fetal bovine serum and cultured at 37° C. under 5% CO2 conditions. In the whole-cell patch clamp method, the following solutions were used as extracellular and intracellular solutions, the holding potential is set at −80 mV, and the barium current flowing as an inward current in a potential jump from −80 mV to −20 mV was measured with a patch clamp amplifier and AD converter (Axon Instruments). In order to eliminate the influence of high-threshold activated calcium channels, the value obtained by subtracting the current at 150 ms after the start of stimulation from the peak current was used for data analysis as the T channel current (T-current). The data analysis was performed using pClamp8 (Axon Instruments).
As for test compounds, each compound dissolved in extracellular solution was added directly to the dishes (direct addition method) or added to the dishes by perfusion (perfusion addition method).
According to a similar method to the perfusion addition method of Test Example 1, the effect of each compound of the present invention on human Cav3.2 T-type channels was evaluated. As the test compounds, pimozide at each concentration of 0.01 μM, 0.1 μM, 0.3 μM, 1.0 μM and 3.0 μM, compound 5, compound 14 and compound 15 were used and the test compounds were added by perfusion.

[2] = tested on: mouse intrabuccal injection pruritus models (chloroquine); experiment: Mouse intrabuccal injection pruritus model, chloroquine as pruritogen; type: in vivo, mice; settings: for Scratching bouts (counts/60 minutes) (n): mean ± standard error (n); for inhibition of the histamine-independent scratching bouts: 10 mg/kg, chloroquine, result in words
Protocol: (§1) In this test, the antipruritic effect of the present compound was studied using mouse intrabuccal injection pruritus models in which histamine or chloroquine is intra-buccally administered as a pruritogen. Compound 5 and compound 38 were used as the present compound, and saline comprising 1% DMSO and 5% Tween 80 was used as control. Compound 5 and compound 38 were dissolved into saline comprising 1% DMSO and 5% Tween 80 to adjust the concentration of each compound. Also, male ICR mice with a body weight of 23 to 40 g were used as experimental animals and the animals were freely given tap water and solid feed and was kept under 12-hour light/dark cycle at room temperature of about 24° C.
According to the method in Shimada SG & LaMotte R H (2008) Behavioral differentiation between itch and pain in mouse. Pain 139 (3): 681-687, histamine or chloroquine, which is a pruritogen, was dissolved into saline and the solution was administered into the buccal skin of each male ICR mouse and pruritus was induced to prepare mouse intrabuccal injection pruritus models. The mice were randomly divided into saline comprising 1% DMSO and 5% Tween 80 (Solvent 1)+saline (Solvent 2) administration group (control group), Solvent 1+histamine administration group, compound 5 (10 mg/kg)+histamine administration group, Solvent 1+chloroquine administration group, compound 5 (10 mg/kg)+chloroquine administration group, compound 38 (1 mg/kg)+chloroquine administration group, compound 38 (3 mg/kg)+chloroquine administration group and compound 38 (10 mg/kg)+chloroquine administration group (n=6 to 10). The mice in each group were anesthetized with isoflurane and their right cheek hairs were shaved a few days before the experiment. On the day of the experiment, the mice were placed in an acrylic observation cage (10×14×30 cm) with mirrors on all four sides and allowed to acclimate the environment for at least 30 minutes. After the acclimatization, saline in a volume of 10 μL/site, histamine in a volume of 300 μL/site or chloroquine in a volume of 100 μL/site was intradermally administered to the shaved cheeks of the mice without anesthesia, and their subsequent behavior was recorded on video for 60 minutes. Compound 5 (10 mg/kg), compound 38 (1 mg/kg, 3 mg/kg or 10 mg/kg) or Solvent 1 (10 mL/kg) was intraperitoneally administered 30 minutes before saline or the pruritogen was administered. At the later date, the video was replayed and the number of occurrences of the scratching bouts by the hind paws to the administration site (as pruritus response) was counted for 60 minutes to evaluate the antipruritic effect of the present compound.
The test results are shown in Table 5 to Table 7 and FIG. 8 to FIG. 10. Table 5 and FIG. 8 show the mean value±standard error (the total (n)) of the total counts of the scratching bouts by the hind paws to the administration site for 60 minutes after the administration in control group, Solvent 1+histamine administration group and compound 5 (10 mg/kg)+histamine administration group and the graph thereof, and Table 6 and FIG. 9 show the mean value±standard error (the total (n)) of the total counts of the scratching bouts by the hind paws to the administration site for 60 minutes after the intrabuccal administration on the right side in control group, Solvent 1+chloroquine administration group, compound 5(10 mg/kg)+chloroquine administration group and the graph thereof, and Table 7 and FIG. 10 show the mean value±standard error (the total (n)) of the total counts of the scratching bouts by the hind paws to the administration site for 60 minutes after the intrabuccal administration on the right side in control group, Solvent 1+chloroquine administration group, compound 38 (1 mg/kg)+chloroquine administration group, compound 38 (3 mg/kg)+chloroquine administration group and compound 38 (10 mg/kg)+chloroquine administration group and the graph thereof.

male ddY mice = experiment: Catalepsy-inducing effect (bar test) after administration in the lateral ventricle; type: in vivo; settings: 8 nmol in the lateral ventricle; 30-180 minutes after administration; result in words
Text: In this test, the catalepsy-inducing effect of the present compound was studied to evaluate whether the present compound can inhibit side effects caused by the dopamine D2 receptor blockade. Compound 5 and compound 12 were used as the present compound and 2% DMSO solution was used as vehicle. Also, pimozide was used as the control drug.
16 male ddY mice were randomly divided into compound 5 administration group, compound 12 administration group, pimozide administration group and vehicle administration group (4 mice per group). The mice in each group were received the administration of 8 nmol (0.8 mM/10 μL) of compound 5, compound 12 and pimozide, and 10 μL of vehicle in the lateral ventricle. both forepaws of the mice were forced to place themselves on a horizontal iron bar (Height: 5 cm) and the time of keeping the posture (catalepsy) was measured to evaluate the presence or absence of catalepsy. The measurement was terminated when the forepaws touched the floor or when the mouse was on the bar.

[3] = tested on: mouse Na2S intrabuccal injection pruritus models; experiment: Mouse Na2S intrabuccal injection pruritus model (scratching bouts and wipes); type: in vivo, mice
Protocol: In this test, the antipruritic and analgesic effects of the present compound was studied using mouse Na2S intrabuccal injection pruritus models. Compound 5 was used as the present invention and saline comprising 1% DMSO and 5% Tween 80 was used as vehicle.
Male ICR mice were received the intrabuccal injection of 3.8 μmol (300 μg/10 μL) of Na2S and T-type calcium channel-[…] pain was induced to prepare mouse Na2S intrabuccal injection pruritus models. 18 mice were randomly divided into vehicle+saline administration group (control group), vehicle+Na2S administration group and compound 5 (10 mg/kg)+Na2S administration group (6 mice per group). The mice in each group were anesthetized with isoflurane and their right cheek hairs were shaved the day or a few days before the experiment. On the day of the experiment, the mice were placed in an acrylic observation cage with mirrors on all four sides and allowed to acclimate the environment for at least 30 minutes. After the acclimatization, Na2S was intradermally administered to the shaved cheeks of the mice without anesthesia, and their subsequent behavior was recorded on video. Compound 5 (10 mg/kg) or vehicle (V, 10 mL/kg) was intraperitoneally administered 30 minutes before Na2S was administered. At the later date, the video was replayed and the number of occurrences of the scratching bouts by the hind paws to the administration site (as pruritus response) and the wipes (wiping) by the forepaws (as pain response) was counted for 60 minutes to evaluate the antipruritic and analgesic effects of the present compound.

[4] = tested on: mouse Na2S intraplantar injection pain models; experiment: Mouse Na2S intraplantar injection pain model (von Frey pain threshold); type: in vivo, mice; settings: for Pain Threshold: mean ± standard error
Protocol: In this test, the analgesic effect of the present compound was studied using mouse Na2S intraplantar injection pain models. Compound 5 was used as the present compound, and saline comprising 1% DMSO and 5% Tween 80 was used as vehicle.
Male ICR mice were received the intraplantar injection of 10 μmol/paw/10 μL of Na2S and T-type calcium channel-dependent pain was induced to prepare mouse Na2S intraplantar injection pain models. The mice were randomly divided into the vehicle+vehicle administration group (control group), vehicle+Na2S administration group, compound 5 (1 mg/kg)+Na2S administration group, compound 5 (3 mg/kg)+Na2S administration group and compound 5 (10 mg/kg)+Na2S administration group (n=7 to 11). Vehicle (V, 10 mL/kg) or 1, 3 or 10 mg/kg of compound 5 was intraperitoneally administered 30 minutes before Na2S was injected intraplantarlly in the hind paws of the mice.
Pain thresholds were measured every 15 minutes until 60 minutes after the administration of Na2S by the von Frey method to evaluate the analgesic effect of the present compound.

[5] = tested on: mouse intrabuccal injection pruritus models (histamine); experiment: Mouse intrabuccal injection pruritus model, histamine as pruritogen; type: in vivo, mice
Protocol: as §1
According to the method in Shimada SG & LaMotte R H (2008) Behavioral differentiation between itch and pain in mouse. […] After the acclimatization, saline in a volume of 10 μL/site, histamine in a volume of 300 μL/site or chloroquine in a volume of 100 μL/site was intradermally administered to the shaved cheeks of the mice without anesthesia, and their subsequent behavior was recorded on video for 60 minutes. […] At the later date, the video was replayed and the number of occurrences of the scratching bouts by the hind paws to the administration site (as pruritus response) was counted for 60 minutes to evaluate the antipruritic effect of the present compound. […]

[6] = 10 mg/kg i.p. + Na2S, result in words
[7] = 10 mg/kg intraperitoneally 30 minutes before Na2S, mean ± standard error, 6 mice

T1 sequence (O95180 whole entry, the tested form may be a part): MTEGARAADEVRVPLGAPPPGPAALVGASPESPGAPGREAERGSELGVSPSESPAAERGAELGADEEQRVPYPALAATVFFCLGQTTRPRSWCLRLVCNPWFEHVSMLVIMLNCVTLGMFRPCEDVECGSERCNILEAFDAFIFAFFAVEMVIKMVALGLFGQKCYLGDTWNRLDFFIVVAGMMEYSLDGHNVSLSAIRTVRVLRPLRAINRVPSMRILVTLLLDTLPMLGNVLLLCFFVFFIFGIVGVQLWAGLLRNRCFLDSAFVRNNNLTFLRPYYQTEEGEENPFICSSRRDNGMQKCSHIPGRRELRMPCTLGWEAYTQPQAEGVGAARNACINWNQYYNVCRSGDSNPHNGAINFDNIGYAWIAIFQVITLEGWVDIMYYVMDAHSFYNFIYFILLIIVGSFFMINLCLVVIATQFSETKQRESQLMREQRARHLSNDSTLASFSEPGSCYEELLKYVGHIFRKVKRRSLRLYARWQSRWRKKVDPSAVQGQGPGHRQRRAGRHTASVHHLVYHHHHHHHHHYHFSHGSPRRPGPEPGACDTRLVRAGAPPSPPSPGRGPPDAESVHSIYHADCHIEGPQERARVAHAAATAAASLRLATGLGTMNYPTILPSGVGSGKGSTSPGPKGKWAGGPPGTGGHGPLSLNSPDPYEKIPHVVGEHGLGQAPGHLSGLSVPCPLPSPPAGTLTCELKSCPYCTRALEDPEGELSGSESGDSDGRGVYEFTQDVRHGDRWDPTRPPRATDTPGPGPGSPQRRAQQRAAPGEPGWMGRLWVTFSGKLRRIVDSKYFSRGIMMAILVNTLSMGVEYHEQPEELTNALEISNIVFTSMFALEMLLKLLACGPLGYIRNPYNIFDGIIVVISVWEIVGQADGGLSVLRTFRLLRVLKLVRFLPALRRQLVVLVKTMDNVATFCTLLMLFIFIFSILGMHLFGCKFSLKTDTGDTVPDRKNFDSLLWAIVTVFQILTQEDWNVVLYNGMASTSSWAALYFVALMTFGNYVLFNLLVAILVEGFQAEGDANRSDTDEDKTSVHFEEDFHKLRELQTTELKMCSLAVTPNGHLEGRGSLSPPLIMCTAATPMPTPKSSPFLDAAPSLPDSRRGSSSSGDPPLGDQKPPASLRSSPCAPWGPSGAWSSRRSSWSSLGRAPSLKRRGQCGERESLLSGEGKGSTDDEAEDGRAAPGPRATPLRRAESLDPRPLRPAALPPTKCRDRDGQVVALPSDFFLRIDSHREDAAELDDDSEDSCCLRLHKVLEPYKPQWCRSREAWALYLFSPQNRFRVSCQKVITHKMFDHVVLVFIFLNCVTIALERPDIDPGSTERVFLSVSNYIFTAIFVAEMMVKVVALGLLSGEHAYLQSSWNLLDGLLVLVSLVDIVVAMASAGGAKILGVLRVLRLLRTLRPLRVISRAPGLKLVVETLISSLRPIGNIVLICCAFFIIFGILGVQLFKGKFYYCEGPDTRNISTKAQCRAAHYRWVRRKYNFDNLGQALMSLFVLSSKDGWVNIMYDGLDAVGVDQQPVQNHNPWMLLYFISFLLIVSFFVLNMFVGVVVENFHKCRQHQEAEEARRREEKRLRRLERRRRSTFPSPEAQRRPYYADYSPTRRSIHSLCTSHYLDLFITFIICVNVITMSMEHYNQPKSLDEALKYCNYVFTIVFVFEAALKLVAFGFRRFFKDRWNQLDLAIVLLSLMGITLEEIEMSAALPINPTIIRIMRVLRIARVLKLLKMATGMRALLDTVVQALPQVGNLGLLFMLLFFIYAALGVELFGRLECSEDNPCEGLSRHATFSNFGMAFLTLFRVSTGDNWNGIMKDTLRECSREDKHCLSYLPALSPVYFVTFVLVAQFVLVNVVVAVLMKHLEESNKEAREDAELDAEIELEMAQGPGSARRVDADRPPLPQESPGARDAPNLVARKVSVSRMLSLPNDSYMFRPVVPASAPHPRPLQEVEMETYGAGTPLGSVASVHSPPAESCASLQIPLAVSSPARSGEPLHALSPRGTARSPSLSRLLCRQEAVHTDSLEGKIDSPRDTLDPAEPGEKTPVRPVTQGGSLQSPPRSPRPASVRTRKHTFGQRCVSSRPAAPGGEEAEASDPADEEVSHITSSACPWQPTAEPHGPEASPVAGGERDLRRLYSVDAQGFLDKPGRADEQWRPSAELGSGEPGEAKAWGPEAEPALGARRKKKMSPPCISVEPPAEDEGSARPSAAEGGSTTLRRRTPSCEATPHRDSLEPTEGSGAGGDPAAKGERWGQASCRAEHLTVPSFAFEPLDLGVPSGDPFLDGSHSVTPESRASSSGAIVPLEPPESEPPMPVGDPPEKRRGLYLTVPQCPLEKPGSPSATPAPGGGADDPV

O=c1[nH]c2ccccc2n1C1CCN(CCCC(c2ccc(F)cc2)c2ccc(F)cc2)CC1 [Pimozide, 1-{1-[4,4-Bis(4-fluorophenyl)butyl]piperidin-4-yl}-1,3-dihydro-2H-benzimidazol-2-one, reference compound]
IC50 [1]: 157 nM

O=C(CCCc1ccccc1)N1CCC(n2c(=O)n(CCCCc3ccccc3)c3ccccc32)CC1 [Compound 15, 1-(1-(4-Phenylbutanoyl)piperidin-4-yl)-3-(4-phenylbutyl)-1H-benzo[d]imidazol-2(3H)-one]
IC50 [1]: 153 nM

O=c1n(CCCCc2cccc(F)c2)c2ccccc2n1C1CCN(CCCCc2cccc(F)c2)CC1 [Compound 38, 1-(4-(3-Fluorophenyl)butyl)-3-(1-(4-(3-fluorophenyl)butyl)piperidin-4-yl)-1H-benzo[d]imidazol-2(3H)-one]
Scratching bouts (counts/60 minutes) (n) ([2]; 1 mg/kg i.p. 30 minutes before chloroquine, Table 7): 73.0 ± 10.5 (6) counts/60 minutes | Scratching bouts (counts/60 minutes) (n) ([2]; 3 mg/kg i.p. 30 minutes before chloroquine, Table 7): 50.7 ± 9.7 (6) counts/60 minutes | Scratching bouts (counts/60 minutes) (n) ([2]; 10 mg/kg i.p. 30 minutes before chloroquine, Table 7): 28.8 ± 10.5 (8) counts/60 minutes | inhibition of the histamine-independent scratching bouts [2]: strongly inhibited

O=c1n(CCCCc2ccccc2)c2ccccc2n1C1CCN(CCCCc2ccccc2)CC1 [Compound 5, 1-(4-phenylbutyl)-3-(1-(4-phenylbutyl)piperidin-4-yl)-1H-benzo[d]imidazol-2(3H)-one]
IC50 [1]: 461 nM | catalepsy (keeping time of posture) (male ddY mice): catalepsy was induced | inhibition of pain [3, 6]: significantly inhibited | inhibition of pruritus [3, 6]: significantly inhibited | Scratching bouts (counts/60 minutes) [3, 7]: 36.2 ± 9.5 counts/60 minutes | Wipes (counts/60 minutes) [3, 7]: 30.7 ± 4.0 counts/60 minutes | Pain Threshold ([4]; 1 mg/kg i.p. + Na2S, 15 minutes after administration): 0.317 ± 0.082 g | Pain Threshold ([4]; 1 mg/kg i.p. + Na2S, 30 minutes after administration): 0.296 ± 0.078 g | Pain Threshold ([4]; 3 mg/kg i.p. + Na2S, 15 minutes after administration): 0.347 ± 0.079 g | Pain Threshold ([4]; 3 mg/kg i.p. + Na2S, 30 minutes after administration): 0.417 ± 0.064 g | Pain Threshold ([4]; 10 mg/kg i.p. + Na2S, 15 minutes after administration): 0.514 ± 0.054 g | Pain Threshold ([4]; 10 mg/kg i.p. + Na2S, 30 minutes after administration): 0.604 ± 0.049 g | inhibition of pain ([4]; compound 5 administration group + Na2S, result in words): pain was inhibited | Scratching bouts (counts/60 minutes) (n) ([5]; 10 mg/kg i.p. 30 minutes before histamine, mean ± standard error (n)): 13.3 ± 5.0 (7) counts/60 minutes | inhibition of the histamine-dependent scratching bouts ([5]; 10 mg/kg, result in words): strongly inhibited | Scratching bouts (counts/60 minutes) (n) ([2]; 10 mg/kg i.p. 30 minutes before chloroquine, Table 6): 24.9 ± 5.5 (10) counts/60 minutes | inhibition of the histamine-independent scratching bouts [2]: strongly inhibited

O=c1n(CCCCc2ccccc2)c2ccccc2n1C1CCN(CCCc2ccccc2)CC1 [Compound 14, 1-(4-Phenylbutyl)-3-(1-(3-phenylpropyl)piperidin-4-yl)-1H-benzo[d]imidazol-2(3H)-one]
IC50 [1]: 337 nM

Reference: patent US20240287019A1, “T-TYPE CALCIUM CHANNEL BLOCKER” (KINKI UNIVERSITY, priority 2021, published 2024)
